The values that follow come from ChEMBL document CHEMBL3797034, “Design, synthesis and evaluation of novel tacrine-multialkoxybenzene hybrids as multi-targeted compounds against Alzheimer's disease” (Eur J Med Chem, 2016).

One assay concerns the target Cholinesterase (Equus caballus, UniProt P81908).
The target of assay [1] is Amyloid-beta precursor protein (Homo sapiens, UniProt P05067).
Description: Inhibition of self-mediated amyloid beta (1 to 42) (unknown origin) aggregation after 24 hrs by thioflavin T fluorescence assay
In another assay the target is Acetylcholinesterase (Electrophorus electricus, UniProt O42275).
Assay [2] deals with Acetylcholinesterase (Electrophorus electricus) (UniProt O42275). As to the kind of experiment: Reversible inhibition of electric eel AChE using acetylthiocholine chloride as substrate preincubated for 20 mins followed by substrate addition by Lineweaver-burk plot analysis.
Assay [3] has the same target. As to the kind of experiment: Mixed inhibition of electric eel AChE using acetylthiocholine chloride as substrate preincubated for 20 mins followed by substrate addition by Lineweaver-burk plot analysis.

The structures appear in SMILES notation. Calls of active or inactive are those of the source. No cut-off for these calls is given here.

Chain of Amyloid-beta precursor protein (P05067 whole entry): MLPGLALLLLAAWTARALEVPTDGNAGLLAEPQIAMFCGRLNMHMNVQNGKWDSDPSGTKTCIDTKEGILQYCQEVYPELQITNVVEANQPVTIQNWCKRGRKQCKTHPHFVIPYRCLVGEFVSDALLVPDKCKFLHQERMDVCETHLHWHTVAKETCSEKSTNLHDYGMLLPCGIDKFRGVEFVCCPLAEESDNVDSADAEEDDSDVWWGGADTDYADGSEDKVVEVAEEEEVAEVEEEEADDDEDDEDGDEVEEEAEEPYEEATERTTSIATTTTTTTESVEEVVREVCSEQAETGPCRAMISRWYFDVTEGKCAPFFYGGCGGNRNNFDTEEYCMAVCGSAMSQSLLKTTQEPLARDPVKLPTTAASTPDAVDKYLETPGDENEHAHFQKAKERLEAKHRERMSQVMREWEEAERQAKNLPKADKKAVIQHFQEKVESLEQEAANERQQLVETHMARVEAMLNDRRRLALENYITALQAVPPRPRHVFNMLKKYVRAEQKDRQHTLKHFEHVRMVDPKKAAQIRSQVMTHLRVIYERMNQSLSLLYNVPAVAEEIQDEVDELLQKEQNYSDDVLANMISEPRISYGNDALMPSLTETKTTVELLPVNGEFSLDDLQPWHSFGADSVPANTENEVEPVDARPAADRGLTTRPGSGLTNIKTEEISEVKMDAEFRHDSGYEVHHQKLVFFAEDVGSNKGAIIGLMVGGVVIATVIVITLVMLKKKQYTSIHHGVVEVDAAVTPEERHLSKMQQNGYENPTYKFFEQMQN
Chain of Cholinesterase (P81908 whole entry): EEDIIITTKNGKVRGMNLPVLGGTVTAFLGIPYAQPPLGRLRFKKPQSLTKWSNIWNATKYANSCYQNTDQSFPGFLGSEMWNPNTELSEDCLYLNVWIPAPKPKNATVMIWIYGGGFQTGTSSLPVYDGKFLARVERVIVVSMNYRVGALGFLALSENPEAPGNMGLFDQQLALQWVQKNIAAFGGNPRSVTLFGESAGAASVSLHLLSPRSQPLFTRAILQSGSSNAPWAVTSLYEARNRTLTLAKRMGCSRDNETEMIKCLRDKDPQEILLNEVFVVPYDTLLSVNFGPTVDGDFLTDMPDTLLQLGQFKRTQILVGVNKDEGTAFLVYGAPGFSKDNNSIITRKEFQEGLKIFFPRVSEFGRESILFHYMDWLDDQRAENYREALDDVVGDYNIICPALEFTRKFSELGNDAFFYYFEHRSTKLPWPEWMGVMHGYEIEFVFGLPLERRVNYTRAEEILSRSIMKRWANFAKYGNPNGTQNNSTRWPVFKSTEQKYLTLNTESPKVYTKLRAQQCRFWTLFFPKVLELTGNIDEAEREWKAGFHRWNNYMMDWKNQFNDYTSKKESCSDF
Chain of Acetylcholinesterase (O42275 whole entry): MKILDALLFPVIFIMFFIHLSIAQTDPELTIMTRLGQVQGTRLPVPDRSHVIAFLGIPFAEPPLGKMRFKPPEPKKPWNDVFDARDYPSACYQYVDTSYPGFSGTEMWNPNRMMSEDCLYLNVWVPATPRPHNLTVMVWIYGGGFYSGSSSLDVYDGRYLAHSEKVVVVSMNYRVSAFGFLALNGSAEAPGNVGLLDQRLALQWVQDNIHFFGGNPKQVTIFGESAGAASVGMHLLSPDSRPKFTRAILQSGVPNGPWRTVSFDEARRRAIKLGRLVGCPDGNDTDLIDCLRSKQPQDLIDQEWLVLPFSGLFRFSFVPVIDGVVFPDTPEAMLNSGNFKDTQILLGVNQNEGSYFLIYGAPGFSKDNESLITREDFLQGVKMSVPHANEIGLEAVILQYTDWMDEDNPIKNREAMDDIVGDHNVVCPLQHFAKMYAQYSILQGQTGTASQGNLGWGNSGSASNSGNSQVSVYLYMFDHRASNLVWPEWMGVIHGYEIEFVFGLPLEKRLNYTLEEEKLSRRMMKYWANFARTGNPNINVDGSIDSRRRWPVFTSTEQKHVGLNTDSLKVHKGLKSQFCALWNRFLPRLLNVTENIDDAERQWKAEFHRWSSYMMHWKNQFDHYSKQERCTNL
Chain of Acetylcholinesterase (Electrophorus electricus) (O42275 24-633 limits assumed): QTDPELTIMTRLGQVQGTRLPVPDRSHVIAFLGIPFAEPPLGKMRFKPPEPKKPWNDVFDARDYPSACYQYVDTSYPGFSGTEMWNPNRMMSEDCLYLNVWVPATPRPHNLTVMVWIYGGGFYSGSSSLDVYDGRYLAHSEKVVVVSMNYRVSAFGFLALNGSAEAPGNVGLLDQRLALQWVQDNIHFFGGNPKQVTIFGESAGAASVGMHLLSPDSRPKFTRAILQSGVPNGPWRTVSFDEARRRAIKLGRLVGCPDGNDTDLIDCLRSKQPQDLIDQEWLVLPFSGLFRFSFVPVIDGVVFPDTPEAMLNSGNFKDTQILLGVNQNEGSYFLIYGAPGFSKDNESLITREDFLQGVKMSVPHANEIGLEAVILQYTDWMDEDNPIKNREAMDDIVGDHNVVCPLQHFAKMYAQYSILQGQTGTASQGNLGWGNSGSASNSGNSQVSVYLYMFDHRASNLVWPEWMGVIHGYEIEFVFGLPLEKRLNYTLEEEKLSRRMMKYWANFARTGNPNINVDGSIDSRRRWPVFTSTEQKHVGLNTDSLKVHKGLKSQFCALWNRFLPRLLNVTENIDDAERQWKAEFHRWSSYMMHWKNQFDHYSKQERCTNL

The term IC50 denotes the concentration that gives 50% inhibition. Higher therefore signals a need for much substance. Take `COc1ccc(C(=O)OCC(=O)Nc2c3c(nc4ccccc24)CCCC3)c(OC)c1OC`: the results for the IC50 (on Cholinesterase; in assay [1]; at Acetylcholinesterase) were 0.255 µM, 0.0655 µM and 0.0155 µM, respectively.
For `COc1ccc(/C=C/C(=O)OCC(=O)Nc2c3c(nc4ccccc24)CCCC3)cc1OC`, in that order: 0.159 µM, 0.0491 µM and 0.0162 µM.
The corresponding values for `O=C(COC(=O)c1ccc(O)c(O)c1)Nc1c2c(nc3ccccc13)CCCC2` are 0.344 µM, 0.0174 µM and 0.133 µM.
For `COc1ccc(CC(=O)OCC(=O)Nc2c3c(nc4ccccc24)CCCC3)cc1`, in that order: 0.319 µM, 0.0713 µM and 0.0253 µM.
Turning to `O=C(COC(=O)Cc1ccc(Cl)cc1)Nc1c2c(nc3ccccc13)CCCC2`, the IC50 against Cholinesterase was 0.218 µM; in assay [1] it was 0.0775 µM; against Acetylcholinesterase it was 0.183 µM.
For `COc1cc(C(=O)OCC(=O)Nc2c3c(nc4ccccc24)CCCC3)ccc1O`, the half-inhibitory concentration (IC50) against Cholinesterase was found to be 0.319 µM; in assay [1], 0.0374 µM; against Acetylcholinesterase it was 0.0701 µM.
For `O=C(COC(=O)Cc1ccc(O)cc1)Nc1c2c(nc3ccccc13)CCCC2`, in that order: 0.239 µM, 0.0453 µM and 0.074 µM.
As for `O=C(COC(=O)/C=C/c1ccc(Cl)cc1)Nc1c2c(nc3ccccc13)CCCC2`, the IC50 was 0.542 µM against Cholinesterase, 0.0518 µM in assay [1] and 0.213 µM against Acetylcholinesterase.
The corresponding values for `O=C(COC(=O)Cc1c[nH]c2ccccc12)Nc1c2c(nc3ccccc13)CCCC2` are 0.292 µM, 0.039 µM and 0.00813 µM.
The corresponding values for `COc1cc(/C=C/C(=O)OCC(=O)Nc2c3c(nc4ccccc24)CCCC3)cc(OC)c1OC` are 0.299 µM, 0.0459 µM and 0.0169 µM.
Take `COc1ccc(CC(=O)OCC(=O)Nc2c3c(nc4ccccc24)CCCC3)c(OC)c1OC`: the IC50 against Cholinesterase amounted to 0.364 µM; in assay [1] it was 0.0518 µM; against Acetylcholinesterase it was 0.00563 µM. Moreover, the inhibition result in assay [2] and in assay [3] was “Active” throughout.
Consider `COc1ccc(/C=C/C(=O)OCC(=O)Nc2c3c(nc4ccccc24)CCCC3)cc1O`, for which the IC50 on Cholinesterase was 0.355 µM; in assay [1] it was 0.0461 µM; on Acetylcholinesterase, 0.0749 µM.
For `COc1cc(OC)cc(C(=O)OCC(=O)Nc2c3c(nc4ccccc24)CCCC3)c1`, in that order: 0.224 µM, 0.0559 µM and 0.0157 µM.
With `COc1cc(C(=O)OCC(=O)Nc2c3c(nc4ccccc24)CCCC3)cc(OC)c1OC`, the half-maximal inhibitory concentration (IC50) against Cholinesterase was 0.329 µM; in assay [1], 0.0307 µM; against Acetylcholinesterase, 0.00846 µM.
For `COc1ccc(CC(=O)OCC(=O)Nc2c3c(nc4ccccc24)CCCC3)cc1OC`, in that order: 0.554 µM, 0.0225 µM and 0.0651 µM.
